Like-named read-outs stand apart in the source and are kept apart here.
Test system: progranulin
Assay: Progranulin induction cellular assay (ELISA of secreted mouse PGRN)
Assay type: cell-based
Procedure: Cellular Assays: Progranulin induction assay. To measure the efficacy of compounds, a progranulin induction cellular assay in mouse primary microglia (pMG), primary cortical neurons, and BV-2 cell lines is used. BV-2 cells are split the day before plating into a 96 well plate format at approximately 80%. Cells should be plated the day before and allowed for 1 hour attachment period and for 16 hour incubation. Levels of progranulin secreted into the cell culture medium or retained in the cell lysate can be quantified using an ELISA-based readout and measurement of secreted mouse PGRN in the medium was assessed by the methodology published by Ghidoni et al. 2012. Standard ELISA kits to measure PGRN are available from vendors such as Adipogen, R&D, and Biovendor.
Table B below presents the results of a progranulin induction assay as described above.

[1] = progranulin induction assay, mouse pMG, primary cortical neurons and BV-2 cell lines named, cell type not given, ELISA-based readout, read-out: EC50
[2] = Mus musculus, BV-2, read-out: EC50 μM

N[C@H]1CO[C@@H](C(=O)N2CCc3ccccc3[C@@H]2c2ccc(F)cc2)C[C@@H]1O [Compound 5070, ((2R,4S,5S)-5-amino-4-hydroxytetrahydro-2H-pyran-2-yl)((S)-1-(4-fluorophenyl)-3,4-dihydroisoquinolin-2(1H)-yl)methanone]
EC50 [1]: 0.153 µM

CCN[C@H]1CO[C@@H](C(=O)N2CCc3ccccc3[C@@H]2c2ccc(F)cc2)OC1 [Compound 5050, (cis-5-(ethylamino)-1,3-dioxan-2-yl)((S)-1-(4-fluorophenyl)-3,4-dihydroisoquinolin-2(1H)-yl)methanone]
EC50 [1]: 0.35 µM

CC[N-][S@+2](C)([O-])[C@H]1CO[C@@H](C(=O)N2CCc3ccccc3[C@@H]2c2ccc(F)cc2)C[C@@H]1N (single isomer, unassigned) [Compound 5558]
EC50 [1]: 0.312 µM

CCO[C@H]1CO[C@@H](C(=O)N2CCc3ccccc3[C@@H]2c2ccc(F)cc2)C[C@H]1N [Compound 5248, ((2R,4R,5R)-4-amino-5-ethoxytetrahydro-2H-pyran-2-yl)((S)-1-(4-fluorophenyl)-3,4-dihydroisoquinolin-2(1H)-yl)methanone]
EC50 [1]: 0.032 µM

NC[C@]1(O)CC[C@@H](C(=O)N2CCc3ccccc3[C@@H]2c2ccc(F)cc2)OC1 (single isomer, unassigned) [Compound 5046]
EC50 [1]: 0.062 µM

CCNC[C@@]1(O)CO[C@@H](C(=O)N2CCc3ccccc3[C@@H]2c2ccc(F)cc2)C1 [Compound 5037, ((2R,4R)-4-((ethylamino)methyl)-4-hydroxytetrahydrofuran-2-yl)((S)-1-(4-fluorophenyl)-3,4-dihydroisoquinolin-2(1H)-yl)methanone]
EC50 [1]: 0.339 µM

O=C([C@H]1CNCCO1)N1CCc2ccccc2[C@@H]1c1ccc(F)cc1 [Compound 5405, ((S)-1-(4-fluorophenyl)-3,4-dihydroisoquinolin-2(1H)-yl)((R)-morpholin-2-yl)methanone]
EC50 [1]: 0.736 µM

C[C@]1(C(=O)N2CCc3ccccc3[C@@H]2c2ccc(F)cc2)CCNCCO1 [Compound 5239]
EC50 [1]: 0.316 µM

CC(C)(C)N1CCN[C@H]2C[C@H](C(=O)N3CCc4ccccc4[C@@H]3c3ccc(F)cc3)OC[C@@H]21 [Compound 5603]
EC50 [1]: 0.008 µM

CCN[C@H]1C[C@H](C(=O)N2CCc3ccccc3[C@@H]2c2ccc(F)cc2)OC[C@H]1O [Compound 5508, ((2R,4S,5S)-4-(ethylamino)-5-hydroxytetrahydro-2H-pyran-2-yl)((S)-1-(4-fluorophenyl)-3,4-dihydroisoquinolin-2(1H)-yl)methanone]
EC50 [1]: 0.03 µM

NCC1COC(C(=O)N2CCc3ccccc3[C@@H]2c2ccc(F)cc2)C1 (stereo in doubt) [Compound 5008, ((2S,4S)-4-(aminomethyl)tetrahydrofuran-2-yl)((S)-1-(4-fluorophenyl)-3,4-dihydroisoquinolin-2(1H)-yl)methanone]
EC50 [1]: 0.369 µM

N[C@]1(CO)CC[C@H](C(=O)N2CCc3ccccc3[C@@H]2c2ccc(F)cc2)OC1 [Compound 5216, ((2R,5S)-5-amino-5-(hydroxymethyl)tetrahydro-2H-pyran-2-yl)((S)-1-(4-fluorophenyl)-3,4-dihydroisoquinolin-2(1H)-yl)methanone]
EC50 [1]: 0.295 µM

N[C@H]1C[C@H](C(=O)N2CCc3ccccc3[C@@H]2c2ccc(F)cc2)OC[C@@H]1NC(=O)C(F)(F)F [Compound 5514, N-((3R,4S,6R)-4-amino-6-((S)-1-(4-fluorophenyl)-1,2,3,4-tetrahydroisoquinoline-2-carbonyl)tetrahydro-2H-pyran-3-yl)-2,2,2-trifluoroacetamide]
EC50 [1]: 0.024 µM

COCCN[C@H]1CC[C@H](C(=O)N2CCc3ccccc3[C@@H]2c2ccc(F)cc2)OC1 [Compound 5030, ((S)-1-(4-fluorophenyl)-3,4-dihydroisoquinolin-2(1H)-yl)((2R,5S)-5-((2-methoxyethyl)amino)tetrahydro-2H-pyran-2-yl)methanone]
EC50 [1]: 0.348 µM

C[C@@]1(C(=O)N2CCc3ccccc3[C@@H]2c2ccc(F)cc2)C[C@H](N)CCO1 (single isomer, unassigned) [Compound 5237]
EC50 [1]: 0.665 µM

N[C@@H]1CCO[C@@H](C(=O)N2CCc3ccccc3[C@@H]2c2ccc(F)cc2F)C1 [Compound 5256]
EC50 [1]: 0.1 µM

CCN[C@H]1C[C@H](C(=O)N2CCc3ccccc3[C@@H]2c2ccc(F)cc2)OC[C@@H]1OC [Compound 5504, ((2R,4S,5R)-4-(ethylamino)-5-methoxytetrahydro-2H-pyran-2-yl)((S)-1-(4-fluorophenyl)-3,4-dihydroisoquinolin-2(1H)-yl)methanone]
EC50 [1]: 0.009 µM

CCNC[C@]1(O)CO[C@H](C(=O)N2CCc3ccccc3[C@@H]2c2ccc(F)cc2)C1 [Compound 5024, ((2S,4S)-4-((ethylamino)methyl)-4-hydroxytetrahydrofuran-2-yl)((S)-1-(4-fluorophenyl)-3,4-dihydroisoquinolin-2(1H)-yl)methanone]
EC50 [2]: 0.749 µM

N[C@H]1C[C@H](C(=O)N2CCc3ccccc3[C@@H]2c2ccc(F)cc2)OC[C@@H]1OC(F)(F)F [Compound 5507, ((2R,4S,5R)-4-amino-5-(trifluoromethoxy)tetrahydro-2H-pyran-2-yl)((S)-1-(4-fluorophenyl)-3,4-dihydroisoquinolin-2(1H)-yl)methanone]
EC50 [1]: 0.001 µM

C[S@@+2]([NH-])([O-])[C@H]1CO[C@@H](C(=O)N2CCc3ccccc3[C@@H]2c2ccc(F)cc2)C[C@@H]1N (single isomer, unassigned) [Compound 5547]
EC50 [1]: 0.062 µM

N[C@H]1C[C@@H](C(=O)N2CCc3ccccc3[C@@H]2c2ccc(F)cc2)OC[C@H]1O [Compound 5058, ((2S,4S,5S)-4-amino-5-hydroxytetrahydro-2H-pyran-2-yl)((S)-1-(4-fluorophenyl)-3,4-dihydroisoquinolin-2(1H)-yl)methanone]
EC50 [1]: 0.29 µM

O=C([C@@H]1C[C@H](NCCO)CO1)N1CCc2ccccc2[C@@H]1c1ccc(F)cc1 (single isomer, unassigned) [Compound 5067]
EC50 [1]: 0.767 µM

N[C@H]1C[C@H](C(=O)N2CCc3ccccc3[C@@H]2c2ccc(F)cc2)OC[C@H]1CO [Compound 5538, ((2R,4S,5R)-4-amino-5-(hydroxymethyl)tetrahydro-2H-pyran-2-yl)((S)-1-(4-fluorophenyl)-3,4-dihydroisoquinolin-2(1H)-yl)methanone]
EC50 [1]: 0.064 µM

CC[S@@](=O)(=NC)[C@H]1CO[C@@H](C(=O)N2CCc3ccccc3[C@@H]2c2ccc(F)cc2)C[C@@H]1N (single isomer, unassigned) [Compound 5552]
EC50 [1]: 0.011 µM

COCCN[C@H]1C[C@H](C(=O)N2CCc3ccccc3[C@@H]2c2ccc(F)cc2)OC[C@@H]1OC [Compound 5569, ((S)-1-(4-fluorophenyl)-3,4-dihydroisoquinolin-2(1H)-yl)((2R,4S,5R)-5-methoxy-4-((2-methoxyethyl)amino)tetrahydro-2H-pyran-2-yl)methanone]
EC50 [1]: > 0.3 µM

CN1C(=O)CN[C@H]2C[C@H](C(=O)N3CCc4ccccc4[C@@H]3c3ccc(F)cc3)OC[C@@H]21 [Compound 5533, (4aR,7R,8aS)-7-((S)-1-(4-fluorophenyl)-1,2,3,4-tetrahydroisoquinoline-2-carbonyl)-4-methylhexahydro-2H-pyrano[3,4-b]pyrazin-3(4H)-one]
EC50 [1]: 0.289 µM

CS(=O)(=O)[C@@H]1CO[C@@H](C(=O)N2CCc3ccccc3[C@@H]2c2ccc(F)cc2)C[C@@H]1N [Compound 5426, ((2R,4S,5S)-4-amino-5-(methylsulfonyl)tetrahydro-2H-pyran-2-yl)((S)-1-(4-fluorophenyl)-3,4-dihydroisoquinolin-2(1H)-yl)methanone]
EC50 [1]: 0.441 µM

N[C@@H]1CO[C@@H](C(=O)N2CCc3ccccc3[C@@H]2c2ccc(F)cc2)C[C@@H]1OC(F)F [Compound 5089, ((2R,4S,5R)-5-amino-4-(difluoromethoxy)tetrahydro-2H-pyran-2-yl)((S)-1-(4-fluorophenyl)-3,4-dihydroisoquinolin-2(1H)-yl)methanone]
EC50 [1]: 0.062 µM

N[C@]12CC[C@](C(=O)N3CCc4ccccc4[C@H]3c3ccc(F)cc3)(C1)OC2 (single isomer, unassigned) [Compound 5023]
EC50 [1]: 0.212 µM

N[C@H]1C[C@H](C(=O)N2CCc3ccccc3[C@@H]2c2ccc(F)cc2F)OC[C@H]1O [Compound 5257]
EC50 [1]: 0.022 µM

C=CCO[C@H]1CO[C@@H](C(=O)N2CCc3ccccc3[C@@H]2c2ccc(F)cc2)C[C@@H]1N [Compound 5476, ((2R,4S,5R)-5-(allyloxy)-4-aminotetrahydro-2H-pyran-2-yl)((S)-1-(4-fluorophenyl)-3,4-dihydroisoquinolin-2(1H)-yl)methanone]
EC50 [2]: 0.001 µM

NC1CCC(C(=O)N2CCc3ccccc3[C@@H]2c2ccc(F)cc2F)OC1 (stereo in doubt) [Compound 5018, ((2R,5S)-5-aminotetrahydro-2H-pyran-2-yl)((R)-1-(2,4-difluorophenyl)-3,4-dihydroisoquinolin-2(1H)-yl)methanone]
EC50 [1]: > 10 µM

N[C@@]1(CO)CC[C@H](C(=O)N2CCc3ccccc3[C@@H]2c2ccc(F)cc2)OC1 [Compound 5215, ((2R,5R)-5-amino-5-(hydroxymethyl)tetrahydro-2H-pyran-2-yl)((S)-1-(4-fluorophenyl)-3,4-dihydroisoquinolin-2(1H)-yl)methanone]
EC50 [1]: 0.14 µM

O=C([C@H]1CCNCCO1)N1CCc2ccccc2[C@@H]1c1ccc(F)cc1F (single isomer, unassigned) [Compound 5263]
EC50 [1]: 0.078 µM

CO[C@@H]1CO[C@@H](C(=O)N2CCc3ccccc3[C@@H]2c2ccc(F)cc2F)C[C@@H]1N [Compound 5261]
EC50 [1]: 0.079 µM

Reference: patent US20230406843A1, “Progranulin Modulators and Methods of Using the Same” (ARKUDA THERAPEUTICS, priority 2020, published 2023)
